The values below come from patent publication US20240117005A1, “NOVEL BICYCLIC PEPTIDES” (THE COUNCIL OF THE QUEENSLAND INSTITUTE OF MEDICAL RESEARCH, priority 2021, published 2024).

One assay relates to MDA-MB-231-Br cells. Nature of the assay: WST-1 cell proliferation assay, MDA-MB-231-Br. The assay is classed as cell-based, human. Background: Tetrazolium dyes change colour on reduction, which living cells bring about.
For another assay, the system named is CT26 cells. Nature of the assay: WST-1 cell proliferation assay, CT26. Type of assay: cell-based, mouse. The note with it: CT26, WST-1, 72 hours. On the procedure: (§1) (A) CT26, 4T1 or MDA-MB-231 Cells were treated with inhibitors for 72 hours. Following inhibition, media was removed and replaced with WST-1 cell proliferation reagent. Absorbance was recorded at 450 nm after 1 hour. Data represent a single independent experiment performed in triplicate. Results are graphed as mean +/− standard error (SE). B) MDA-MB-231 or CT26 cancer cells were treated with vehicle control, DL-2-Batch 1 (original stock), DL-2-Batch 2 (current stock), DL-2-TBAB or linear PDL1. Cells were permeabilised and were probed with the DUOLINK ligation assay. Cover slips were mounted on glass microscope slides with ProLong nucblue glass Antifade reagent (Life Technologies). PDL1Ac and IMPα1 DUOLINK Digital images were analysed using ImageJ software (ImageJ, NIH, Bethesda, MD, USA) and graphs represent the mean DOT Fluorescent Intensity in the nucleus or the cytoplasm compartments with significant differences calculated as per one-way ANOVA comparison. (C) MDA-MB-231 or CT26 cancer cells were treated with vehicle control, DL-2-Batch 1 (Original stock), DL-2-Batch 2 (current stock), DL-2-TBAB or linear PDL1. Cells were permeabilised and were probed with the DUOLINK ligation assay. Cover slips were mounted on glass microscope slides with ProLong nucblue glass Antifade reagent (Life Technologies). PDL1-unmodified and IMPα1 DUOLINK digital images were analysed using ImageJ software (ImageJ, NIH, Bethesda, MD, USA) and graphs represent the mean DOT fluorescent intensity in the nucleus or the cytoplasm compartments with significant differences calculated as per one-way ANOVA comparison.
(§2) 4T1, CT26 or MDA-MB-231 cancer cell lines were treated with DL-2 or DL-2-D bicyclic inhibitors for 72 hours. Following inhibition, media was removed and replaced with WST-1 cell proliferation reagent. Absorbance was recorded at 450 nm after 1 hour. Data represent a single independent experiment performed in triplicate; results are graphed as mean +/− standard error (SE).

In another assay the test system is 4T1 cells. The assay is described as follows: WST-1 cell proliferation assay, 4T1. Type of assay: cell-based. The note with it: 4T1, WST-1, 72 hours. On the procedure:
as §1, §2

Assay [1] has as its system CSV, ABCB5, EGFR, FOXQ1, E-Cadherin in MDA-MB-231-Br cells. Nature of the assay: High resolution digital pathology of mesenchymal/epithelial markers, MDA-MB-231-Br. Type of assay: cell-based, human. How it is done: To examine the signature of CD8, CSV, EGFR, ABCB5, FOXQ1, commercial PD-L1-28-8, nuclear PD-L1, cytoplasmic PDL1 in MDA-MB-231 TNBC cells/TNBC brain cancer clone cells (untreated or treated with bicyclic inhibitors targeting nuclear PD-L1-PTM1). MDA-MB-231/MDA-MB-231-Br cells were permeabilised by incubating with 0.5% Triton X-100 for 15 min, blocked with 1% BSA in PBS and were probed with either CSV (Mouse host), CD8 (mouse host), EGFR (Rabbit host), ABCB5 (Goat Host), ALDH1A (Rabbit Host), NODAL (Goat Host), nuclear PDL1 (rabbit host), cytoplasmic PD-L1 (rabbit host) visualized with a donkey anti-rabbit AF 488, anti-mouse AF 568, donkey anti-goat 647. […] Digital images were analyzed using automated ASI software (Applied Spectral Imaging, Carlsbad, CA) to determine the distribution and intensities automatically with automatic thresholding and background correction of the average nuclear fluorescence intensity (NFI), allowing for the specific targeting of expression of proteins of interest. Digital images were also analysed using ImageJ software (ImageJ, NIH, Bethesda, MD, USA) to determine the total cell fluorescence or cell surface only fluorescence for non-permeabilised cells. Digital images were analysed using ImageJ software (ImageJ, NIH, Bethesda, MD, USA) to determine either the Total Nuclear Fluorescent Intensity (TNFI), the Total Cytoplasmic Fluorescent Intensity (TCFI). […]

Another assay concerns the target T1, PDL1-PTM1 and IMPα1 (Homo sapiens, UniProt P52292).
T1 construct: endogenous in cells; host or cells: MDA-MB-231
Nature of the assay: Importin-α pathway screening assay (PCC co-localisation). The assay is classed as cell-based. On the procedure: MDA-MB-231 cells were treated with DL-2 for 4 to 96 hours or control peptide scramble and were permeabilized probed a mouse anti-IMPα1, rabbit anti-PDL1 and visualized with a donkey anti-rabbit secondary antibody conjugated to Alexa Fluor 647 or a donkey anti-mouse secondary antibody conjugated to Alexa Fluor 568. Cover slips were mounted on glass microscope slides with Prolong nucleus glass Antifade reagent (Life Technologies). PDL1 and IMPα1 digital images were analyzed using ImageJ software (ImageJ, NIH, Bethesda, MD, USA) to determine the mean fluorescent intensity (mean FI). Graphs represent the mean FI of IMPα1. Graphs also depict the PCC of PDL1/IMPα1 using ImageJ software with automatic thresholding and manual selection of regions of interest (ROIs) specific for cell nuclei to calculate the Pearson's co-efficient correlation (PCC) for each pair of antibodies. PCC values range from: −1=inverse of co-localization.

Turning to `CCCCCCCCCCCCCC(=O)NC(C)C(=O)NC1CSCc2cc3cc(c2)CSC[C@H](NC(=O)[C@H](Cc2ccccc2)NC(=O)[C@H](C(C)CC)NC(=O)[C@H](Cc2ccccc2)NC(=O)[C@H]([C@@H](C)O)NC(=O)C(CC(C)C)NC1=O)C(=O)N[C@@H](CCCNC(C)=N)C(=O)N[C@@H](CC(C)C)C(=O)N[C@@H](CCCNC(=N)N)C(=O)N[C@@H](CCCCN)C(=O)NCC(=O)N[C@@H](CCCNC(=N)N)C(=O)NC(C(=O)N[C@@H](CCSC)C(=O)NC(CCSC)C(=O)N[C@@H](CC(=O)O)C(=O)NC(C(=O)N[C@@H](CCCCN)C(=O)NC(CCCCN)C(=O)O)C(C)C)CSC3` (mixture of isomers) [DL-2], the inhibition of proliferation entry in the assay with MDA-MB-231-Br cells (WST-1) was “able to inhibit proliferation”; in the assay with CT26 cells it was “significantly inhibit the proliferation”; with CT26 cells (listed as DL-2-TBMB) it was “able to effectively inhibit the proliferation”; with 4T1 cells, “significantly inhibit the proliferation”; in the assay with 4T1 cells (listed as DL-2-TBMB), “able to effectively inhibit the proliferation”. Moreover, in the assay on MDA-MB-231-Br cells (higher potency than DL-1), the “potency of proliferation inhibition relative to DL-1” value is 2-3 fold. Further, the “expression of the epithelial marker E-Cadherin” value in assay [1] is “able to induce expression”. Moreover, the “mesenchymal stem-like resistant protein markers (CSV, ABCB5, EGFR, FOXQ1)” value in assay [1] (vs vehicle control) is reported as “significantly inhibit”. Further, the “nuclear expression of IMPα1” value on PDL1-PTM1 and IMPα1 (MDA-MB-231) is given as “No significant effect”. In addition, on PDL1-PTM1 and IMPα1 (MDA-MB-231, up to 96 hours), the “PCC or degree of co-localization of PDL1-PTM1 and IMPα1” value is “significantly impair”.
